Measurements reported in patent US20050096294A1, “Novel anti-coagulant” (priority 2003, published 2005).

Key:
Type in all cases: biochemical, human
[1] = system: blood immediately after collected from a normal person; assay: Normal blood coagulation time; conditions: for Normal blood coagulation time: standard control 42.5
Procedure: (3) Normal Blood Coagulation Time (Second):
The sulfated polysaccharide 50 μl was separately put (the concentration was adjusted so that the final concentration was a measured concentration) in advance into plastic test tubes (3.3 ml blood collected tube, manufactured by IWAKI Co., Ltd.), and each 1 ml of blood immediately after collected from a normal person was put into the test tubes containing the sulfated polysaccharide and quickly mixed, and the test tubes were repetitively inclined to measure time (second) in which the fluidity disappeared.

[2] = system: extrinsic pathway coagulation; assay: Prothrombin time (PT); conditions: for PT: standard control 12.6
Description: (5) Prothrombin Time (PT):
The present method is a method for inspecting dynamics of extrinsic pathway coagulation. The present method has sensitivity to qualitative and quantitative abnormality in the factor II (prothrombin), the factor V, the factor VII, the factor X and the factor I (fibrinogen), and it is scarcely influenced by the […] and the factor VIII. First, normal (normal volunteer) blood citrate-collected (collected in a plastic test tube charged with 3.13 wt % sodium citrate of 1/10 volume) was subjected to centrifugal separation at 3000 rpm for 10 minutes to obtain supernatant plasma. The PT time was obtained by mixing plasma for inspection with a PT reagent (a mixed solution of tissue thromboplastin and calcium chloride) to measure fibrin-depositing time (second) (using an automatic measuring apparatus). The sample of the sulfated polysaccharide was added to the plasma for inspection in an addition concentration of 0.001 to 1 mg/ml, and normal plasma was used for a standard control.

[3] = system: intrinsic pathway coagulation; assay: Activated partial thromboplastin time (APTT)
Description: (4) Activated Partial Thromboplastin Time (APTT):
The present method is a method for inspecting dynamics of intrinsic pathway coagulation. The present method has sensitivity to qualitative and quantitative abnormality in the factor XII, the factor XI, high molecular weight kininogen, prekallikrein, the factor IX, the factor VIII, the factor X, the factor V, the factor II (prothrombin) and the factor I (fibrinogen). First, normal (normal volunteer) blood citrate-collected (collected in a plastic test tube charged with 3.13 wt % sodium citrate of 1/10 volume) was subjected to centrifugal separation at 3000 rpm for 10 minutes to obtain supernatant plasma. The APTT time was obtained by mixing plasma for inspection with an APTT reagent and then measuring fibrin-depositing time (second) after adding a calcium chloride solution (using an automatic measuring apparatus). The sulfated polysaccharide was added to the plasma for inspection in an addition concentration of 0.001 to 1 mg/ml, and normal plasma was used for a standard control.

[4] = addition concentration 1 mg/ml in normal plasma, standard control 35 (30 in Example 1)
[5] = addition concentration 0.001 mg/ml in normal plasma
[6] = addition concentration 0.01 mg/ml in normal plasma
[7] = addition concentration 0.1 mg/ml in normal plasma
[8] = addition concentration 1 mg/ml in normal plasma
[9] = addition concentration 0.001 mg/ml in normal plasma, standard control 35
[10] = addition concentration 0.01 mg/ml in normal plasma, standard control 35
[11] = addition concentration 0.1 mg/ml in normal plasma, standard control 35
[12] = addition concentration 0.001 mg/ml
[13] = addition concentration 0.01 mg/ml
[14] = addition concentration 0.1 mg/ml

| Substance | coagulation time of normal blood, extension (in words) ([1]; addition of 0.01 mg/ml) | PT time, extension (in words) ([2]; gellan sulfate added to plasma, versus sample without gellan sulfate) | APTT [3, 4] | PT [2, 5] | PT [2, 6] | PT [2, 7] | PT [2, 8] | APTT [3, 9] | APTT [3, 10] | APTT [3, 11] | Normal blood coagulation time [1, 12] | Normal blood coagulation time [1, 13] | Normal blood coagulation time [1, 14] | Normal blood coagulation time ([1]; addition concentration 1 mg/ml) | coagulation time of normal blood, extension (in words) ([1]; 1 mg/ml added) |
| --- | --- | --- | --- | --- | --- | --- | --- | --- | --- | --- | --- | --- | --- | --- | --- |
| chondroitin sulfate [reference compound] | not observed at all to be extended | – | – | – | – | – | – | – | – | – | – | – | – | – | – |
| gellan sulfate [Example 1] | – | significant extension of the time was not observed | 95 s | – | – | – | – | – | – | – | – | – | – | – | – |
| gellan sulfate [Example 2] | – | – | ≥ 300 s | 11.6 s | 11.7 s | 15.8 s | ≥ 300 s | 38.1 s | 30 s | ≥ 300 s | 54 min | 93 min | 230 min | ≥ 600 min | – |
| gellan sulfate [Example 3] | – | – | ≥ 300 s | 11.3 s | 11.8 s | 19.3 s | ≥ 300 s | 49 s | 103.5 s | ≥ 300 s | 58.9 min | 138.8 min | 216.3 min | ≥ 600 min | – |
| gellan sulfate [Example 4] | – | – | ≥ 300 s | 13 s | 12 s | 14 s | ≥ 300 s | 45 s | 45 s | ≥ 300 s | 39.9 min | 72 min | ≥ 600 min | ≥ 600 min | – |
| gellan sulfate [compound 1, reference compound] | – | – | – | – | – | – | – | – | – | – | – | – | – | – | not observed to be extended |
| heparin [reference compound] | – | – | ≥ 300 s | 13 s | 13 s | ≥ 300 s | ≥ 300 s | 50 s | ≥ 300 s | ≥ 300 s | 105.6 min | ≥ 600 min | ≥ 600 min | ≥ 600 min | – |
